Patent US7994140B2, “Classes of compounds that interact with GPCRs” (Alchemia Limited, priority 2002, dated 2011)

target: T1, MC4 (Homo sapiens, UniProt P32245); assay: GPCR radioligand binding (RLB) assay, melanocortin MC4, [125I]NDP-αMSH; settings: 1.0 micromolar compound
T1 construct: purchased Perkin Elmer BioSignal; host or cells: HEK 293
Procedure, shortened: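 Competition binding against radioligand ([125I]NDP-αMSH for MC4, [125I]SST-14 for SST5) on membranes of HEK 293 cells carrying the human receptor; buffer and incubation time optimized per receptor. Filtration through 0.5% PEI-treated glass fiber, washing, then scintillation counting.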

T1 sequence (P32245 whole entry): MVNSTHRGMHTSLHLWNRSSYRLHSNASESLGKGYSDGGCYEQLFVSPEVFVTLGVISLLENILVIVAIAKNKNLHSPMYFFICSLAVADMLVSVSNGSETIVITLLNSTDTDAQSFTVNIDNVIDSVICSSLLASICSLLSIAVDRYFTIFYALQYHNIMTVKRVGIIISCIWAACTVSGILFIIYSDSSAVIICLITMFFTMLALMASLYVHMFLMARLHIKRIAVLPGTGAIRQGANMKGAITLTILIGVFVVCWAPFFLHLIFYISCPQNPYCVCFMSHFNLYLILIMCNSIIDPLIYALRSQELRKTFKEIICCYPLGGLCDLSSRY

| SMILES | MC4 Inhibition at 1.0 Micromolar |
| --- | --- |
| CC(=O)N[C@H]1C(NC(=O)CCN)O[C@H](CO)[C@@H](O)[C@@H]1OCc1ccccc1 (some centres unmarked) [Compound 498] | + (Indicates inhibition greater than . . . 50%) |
| CC(=O)N[C@H]1C(NC(=O)CCN)O[C@H](CO)[C@@H](O)[C@@H]1OCc1ccc(C)cc1 (some centres unmarked) [Compound 499] | + (Indicates inhibition greater than . . . 50%) |
| CC(=O)N[C@H]1C(NC(=O)CCN)O[C@H](CO)[C@@H](O)[C@@H]1OCc1cccc2ccccc12 (some centres unmarked) [Compound 500] | + (Indicates inhibition greater than . . . 50%) |
| CC(=O)N[C@H]1C(NC(=O)CCN)O[C@H](CO)[C@@H](O)[C@@H]1OCc1ccc(-c2ccccc2)cc1 (some centres unmarked) [Compound 501] | + (Indicates inhibition greater than . . . 50%) |
| NCCC(=O)NC1O[C@H](CO)[C@@H](O)[C@H](OCc2ccccc2)[C@H]1NC(=O)c1ccccc1 (some centres unmarked) [Compound 502] | + (Indicates inhibition greater than . . . 50%) |
| NCCC(=O)NC1O[C@H](CO)[C@@H](O)[C@H](OCc2ccc(Cl)cc2)[C@H]1NC(=O)c1ccccc1 (some centres unmarked) [Compound 503] | + (Indicates inhibition greater than . . . 50%) |
| Cc1ccc(CO[C@H]2[C@H](O)[C@@H](CO)OC(NC(=O)CCN)[C@@H]2NC(=O)c2ccccc2)cc1 (some centres unmarked) [Compound 504] | + (Indicates inhibition greater than . . . 50%) |
| NCCC(=O)NC1O[C@H](CO)[C@@H](O)[C@H](OCc2cccc3ccccc23)[C@H]1NC(=O)c1ccccc1 (some centres unmarked) [Compound 505] | + (Indicates inhibition greater than . . . 50%) |
| NCC(=O)NC1O[C@H](CO)[C@@H](O)[C@H](OCc2ccccc2)[C@H]1NC(=O)c1ccccc1 (some centres unmarked) [Compound 506] | + (Indicates inhibition greater than . . . 50%) |
| NCC(=O)NC1O[C@H](CO)[C@@H](O)[C@H](OCc2ccc(Cl)cc2)[C@H]1NC(=O)c1ccccc1 (some centres unmarked) [Compound 507] | + (Indicates inhibition greater than . . . 50%) |

same assay, conditions: 4.0 Micromolar; Example Library 13

| SMILES | MC4 Inhibition at 4.0 Micromolar |
| --- | --- |
| N=C(N)NCC(=O)NC1C(OCc2ccc(Cl)cc2)OC(COCc2ccccc2)C(O)C1OCc1ccc(-c2ccccc2)cc1 (centres unmarked) [Compound 486] | + (Indicates inhibition greater than . . . 50%) |
| N=C(N)NCC(=O)NC1C(OCc2ccc(Cl)cc2)OC(COCc2ccc(Cl)cc2)C(O)C1OCc1ccc(-c2ccccc2)cc1 (centres unmarked) [Compound 487] | + (Indicates inhibition greater than . . . 50%) |
| N=C(N)NCCC(=O)NC1C(OCc2ccc(Cl)cc2)OC(COCc2ccc3ccccc3c2)C(O)C1OCc1ccc(Cl)cc1 (centres unmarked) [Compound 488] | + (Indicates inhibition greater than . . . 50%) |
| N=C(N)NCCC(=O)NC1C(OCc2ccc(Cl)cc2)OC(COCc2ccccc2)C(O)C1OCc1ccc(Cl)cc1 (centres unmarked) [Compound 489] | + (Indicates inhibition greater than . . . 50%) |
| N=C(N)NCCC(=O)NC1C(OCc2ccc(Cl)cc2)OC(COCc2ccc(Cl)cc2)C(O)C1OCc1ccc(Cl)cc1 (centres unmarked) [Compound 490] | + (Indicates inhibition greater than . . . 50%) |
| N=C(N)NCCC(=O)NC1C(OCc2ccc(Cl)cc2)OC(COCc2ccc3ccccc3c2)C(O)C1OCc1ccc2ccccc2c1 (centres unmarked) [Compound 491] | + (Indicates inhibition greater than . . . 50%) |
| N=C(N)NCCC(=O)NC1C(OCc2ccc(Cl)cc2)OC(COCc2ccccc2)C(O)C1OCc1ccc2ccccc2c1 (centres unmarked) [Compound 492] | + (Indicates inhibition greater than . . . 50%) |
| N=C(N)NCCC(=O)NC1C(OCc2ccc(Cl)cc2)OC(COCc2ccc(Cl)cc2)C(O)C1OCc1ccc2ccccc2c1 (centres unmarked) [Compound 493] | + (Indicates inhibition greater than . . . 50%) |
| N=C(N)NCCC(=O)NC1C(OCc2ccc(Cl)cc2)OC(COCc2ccc3ccccc3c2)C(O)C1OCc1ccc(-c2ccccc2)cc1 (centres unmarked) [Compound 494] | + (Indicates inhibition greater than . . . 50%) |
| N=C(N)NCCC(=O)NC1C(OCc2ccc(Cl)cc2)OC(COCc2ccccc2)C(O)C1OCc1ccc(-c2ccccc2)cc1 (centres unmarked) [Compound 495] | + (Indicates inhibition greater than . . . 50%) |
| N=C(N)NCCC(=O)NC1C(OCc2ccc(Cl)cc2)OC(COCc2ccc(Cl)cc2)C(O)C1OCc1ccc(-c2ccccc2)cc1 (centres unmarked) [Compound 496] | + (Indicates inhibition greater than . . . 50%) |
| N=C(N)NCCCC(=O)NC1C(OCc2ccc(-c3ccccc3)cc2)OC(COCc2ccccc2)C(O)C1OCc1ccccc1 (centres unmarked) [Compound 497] | + (Indicates inhibition greater than . . . 50%) |

target: T2, SST5 (Homo sapiens, UniProt P35346); assay: GPCR radioligand binding (RLB) assay, somatostatin SST5, [125I]SST-14; settings: 10 micromolar compound; recombinant human receptor membranes (HEK 293)
T2 construct: purchased Perkin Elmer BioSignal; host or cells: HEK 293
Description: Recombinant human receptors expressed in HEK 293 cells were used for all experiments. Receptor membrane preparations were purchased from Perkin Elmer BioSignal. The labelled ligand used in somatostatin GPCR RLB assays was [^125I]SST-14 and in melanocortin assays was [^125I]NDP-αMSH. All assays were done in a 96-well plate format using either glass fiber filter mats or filter plates. All reagents purchased were of the highest quality.
Specific assay buffer, incubation and washing conditions were optimized for each receptor however they all followed the same general format. The procedures for both filter mat and filter plate formats are based on the receptor manufacturers recommendations or those described extensively in the literature. The procedures are briefly outlined below.
In assays where filter mats are used we incubate receptor membranes, assay buffer and [^125I] labelled ligand in 96 well microplates. Add compounds to incubation mixture and continue incubation for optimized period. Presoak Filter mat GF/B in 0.5% PEI for ˜2 hr at 4° C. On completion of assay mixture incubation add additional 100 μL/well of assay buffer immediately prior to filtration. Filter the assay mixture onto the GF/B filter mat using a cell harvester. Dry the filter mats prior to sealing them into a scintillation counting bag with scintillant. Radioactivity in each well is detected by liquid scintillation counting.
In assays where filter plates are used Multiscreen glass fiber filter plates (Millipore, Cat No MAFCNOB10) are precoated with 0.5% PEI for ˜2 hr at 4° C. All wells are then washed with 200 µl/well assay buffer and filtered using the Multiscreen Separation System. Subsequently receptor membranes, assay buffer and labelled ligands are added to the wells and equilibrated. Compounds for testing are then added to the mixture and incubation is continued for an optimized time. Plates are then put into the Multiscreen Separation System and the assay mixture is filtered through the plate under vacuum. Each well is then washed several times with assay buffer. Plates are then dried prior to putting sealing tape onto the bottom of the plate. Scintillant is added to each well and radioactivity measured by liquid scintillation counting.
Raw data was analysed according to standard methods using either GraphPad Prism software or IDDBS ActivityBase software.

T2 sequence (P35346 whole entry): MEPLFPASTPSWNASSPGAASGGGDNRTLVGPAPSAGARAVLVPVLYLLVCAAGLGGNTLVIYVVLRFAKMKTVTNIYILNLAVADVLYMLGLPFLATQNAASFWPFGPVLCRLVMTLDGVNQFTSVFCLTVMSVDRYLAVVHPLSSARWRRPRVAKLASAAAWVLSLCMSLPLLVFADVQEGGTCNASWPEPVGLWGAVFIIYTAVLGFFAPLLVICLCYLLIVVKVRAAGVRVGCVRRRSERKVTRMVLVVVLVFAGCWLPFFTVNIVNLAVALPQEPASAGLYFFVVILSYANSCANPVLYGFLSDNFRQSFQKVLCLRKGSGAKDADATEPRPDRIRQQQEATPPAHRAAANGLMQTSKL

| SMILES | SST5 inhibition at 10 micromolar |
| --- | --- |
| COC[C@H]1OC(OCc2ccc(-c3ccccc3)cc2)[C@H](NC(=O)CCNC(=N)N)[C@@H](OCc2ccc3ccccc3c2)[C@@H]1O (some centres unmarked) [Compound 2] | + (Indicates inhibition greater than . . . 50%) |
| COC[C@H]1OC(OCc2ccc(-c3ccccc3)cc2)[C@H](NC(=O)CCCN)[C@@H](OCc2ccccc2)[C@@H]1O (some centres unmarked) [Compound 3] | + (Indicates inhibition greater than . . . 50%) |
| COC[C@H]1OC(OCc2ccc3ccccc3c2)[C@H](NC(=O)CCCN)[C@@H](OCc2ccccc2)[C@@H]1O (some centres unmarked) [Compound 4] | + (Indicates inhibition greater than . . . 50%) |
| COC[C@H]1OC(OCc2ccccc2)[C@H](NC(=O)CCCN)[C@@H](OCc2ccc(-c3ccccc3)cc2)[C@@H]1O (some centres unmarked) [Compound 7] | + (Indicates inhibition greater than . . . 50%) |
| COC[C@H]1OC(OCc2ccccc2)[C@H](NC(=O)CCCNC(=N)N)[C@@H](OCc2ccc(-c3ccccc3)cc2)[C@@H]1O (some centres unmarked) [Compound 8] | + (Indicates inhibition greater than . . . 50%) |
| COC[C@H]1OC(OCc2ccccc2)[C@H](NC(=O)CCCN)[C@@H](OCc2ccccc2)[C@@H]1O (some centres unmarked) [Compound 9] | + (Indicates inhibition greater than . . . 50%) |
| COC[C@H]1OC(OCc2ccccc2)[C@H](NC(=O)CCNC(=N)N)[C@@H](OCc2ccc(Cl)cc2)[C@@H]1O (some centres unmarked) [Compound 10] | + (Indicates inhibition greater than . . . 50%) |
| COC[C@H]1OC(OCc2ccccc2)[C@H](NC(=O)CCCN)[C@@H](OCc2ccc(Cl)cc2)[C@@H]1O (some centres unmarked) [Compound 11] | + (Indicates inhibition greater than . . . 50%) |
| COC[C@H]1OC(OCc2ccccc2)[C@H](NC(=O)CCCNC(=N)N)[C@@H](OCc2ccc(Cl)cc2)[C@@H]1O (some centres unmarked) [Compound 12] | + (Indicates inhibition greater than . . . 50%) |
| COC[C@H]1OC(OCc2ccc(Cl)cc2)[C@H](NC(=O)CCCN)[C@@H](OCc2ccccc2)[C@@H]1O (some centres unmarked) [Compound 16] | + (Indicates inhibition greater than . . . 50%) |
| COC[C@H]1OC(OCc2ccc(Cl)cc2)[C@H](NC(=O)CCNC(=N)N)[C@@H](OCc2ccc(Cl)cc2)[C@@H]1O (some centres unmarked) [Compound 17] | + (Indicates inhibition greater than . . . 50%) |
| COC[C@H]1OC(OCc2ccc(Cl)cc2)[C@H](NC(=O)CCCNC(=N)N)[C@@H](OCc2ccc(Cl)cc2)[C@@H]1O (some centres unmarked) [Compound 18] | + (Indicates inhibition greater than . . . 50%) |
| COC[C@H]1OC(OCc2cccc(O)c2)[C@H](NC(=O)CCNC(=N)N)[C@@H](OCc2ccc(-c3ccccc3)cc2)[C@@H]1O (some centres unmarked) [Compound 21] | + (Indicates inhibition greater than . . . 50%) |
| COC[C@H]1OC(OCc2ccc(-c3ccccc3)cc2)[C@H](NC(=O)CCCN)[C@@H](OCc2cccc(O)c2)[C@@H]1O (some centres unmarked) [Compound 22] | + (Indicates inhibition greater than . . . 50%) |
| COC[C@H]1OC(OCc2ccc3ccccc3c2)[C@H](NC(=O)CCCN)[C@@H](OCc2cccc(O)c2)[C@@H]1O (some centres unmarked) [Compound 23] | + (Indicates inhibition greater than . . . 50%) |
| COC[C@H]1OC(OCc2ccc3ccccc3c2)[C@H](NC(=O)CCCNC(=N)N)[C@@H](OCc2cccc(O)c2)[C@@H]1O (some centres unmarked) [Compound 24] | + (Indicates inhibition greater than . . . 50%) |
| COC[C@H]1OC(OCc2ccccc2)[C@H](NC(=O)CCCN)[C@@H](OCc2cccc(O)c2)[C@@H]1O (some centres unmarked) [Compound 25] | + (Indicates inhibition greater than . . . 50%) |
| COC[C@H]1OC(OCc2ccc(Cl)cc2)[C@H](NC(=O)CCCN)[C@@H](OCc2cccc(O)c2)[C@@H]1O (some centres unmarked) [Compound 26] | + (Indicates inhibition greater than . . . 50%) |
| COC[C@H]1OC(OCCc2ccccc2)[C@H](NC(=O)CCCN)[C@@H](OCc2cccc(O)c2)[C@@H]1O (some centres unmarked) [Compound 27] | + (Indicates inhibition greater than . . . 50%) |
